The text below walks through data of ChEMBL document CHEMBL3407427, “Discovery of efficacious Pseudomonas aeruginosa-targeted siderophore-conjugated monocarbams by application of a semi-mechanistic pharmacokinetic/pharmacodynamic model” (J Med Chem, 2015).

Structures are written as SMILES. ≈ marks a conversion by molar mass, not a printed value. Where only a bound is given, the exact number is not on record here.

A short description of data set [1]: Clearance in Wistar Han rat at 1 mg/kg, iv infusion. The class given is ADME, organism-based. Details: dose 1 mg/kg, route intravenous. Conditions: in vivo.
Data set [2] has as its system Pseudomonas aeruginosa. Kind of data set: Antimicrobial activity against Pseudomonas aeruginosa by broth microdilution method. The class given is functional. On the technique in general: Broth dilution looks for growth in wells or tubes with falling amounts of substance.
Data set [3] in a line: Percentage unbound in human plasma at 10 uM after 16 hrs by LC-MS/MS analysis.
Data set [4] has as its system Pseudomonas aeruginosa. As to the kind of experiment: Antimicrobial activity against MexABCDXY-deficient Pseudomonas aeruginosa PAO1 ARC546 by broth microdilution method. The class given is functional.
A further data set has as its system Acinetobacter baumannii. As to the kind of experiment: Antimicrobial activity against Acinetobacter baumannii by broth microdilution method. The class given is functional.
Data set [5] deals with Pseudomonas aeruginosa. Kind of data set: Antimicrobial activity against Pseudomonas aeruginosa PAO1 ARC545 by broth microdilution method. The class given is functional.
Data set [6] is described as follows: Volume of distribution at steady state in Wistar Han rat at 1 mg/kg, iv infusion. The class given is ADME, organism-based. Details: dose 1 mg/kg, route intravenous. The note with it: in vivo, read-out: Vdss.
The next data set relates to Klebsiella pneumoniae. Kind of data set: Antimicrobial activity against Klebsiella pneumoniae by broth microdilution method. The class given is functional.
Data set [7] in a line: Plasma protein binding in Wistar Han rat as percentage unbound.
A short description of data set [8]: Half life in PBS buffer in pH 7.4 by UPLC analysis. The class given is ADME.
The subject of data set [9] is Pseudomonas aeruginosa. As to the kind of experiment: Inhibition of Pseudomonas aeruginosa PBP3 acylation activity by BOCILLIN FL-based assay.
A short description of data set [10]: Half life in Wistar Han rat at 1 mg/kg, iv infusion. Details: dose 1 mg/kg, route intravenous. The note with it: in vivo. The class given is ADME, organism-based.
Another data set has as its system Escherichia coli. Kind of data set: Antimicrobial activity against Escherichia coli by broth microdilution method. The class given is functional.

In general, clearance refers to a measure of how efficiently the substance is removed, as volume per time. A higher clearance goes with a high capacity for elimination. The MIC90 is the lowest concentration that inhibits either 90% of growth or 90% of the strains tested, depending on the study. Read a low MIC90 as greater potency. A word on the fraction unbound: it is the share of the substance not bound to proteins or other matrix. Low readings indicate extensive binding, high ones weak binding. For orientation: MIC means the lowest concentration found to suppress growth. What is called half-life is how long it takes for the measured level to halve. A high value points to slow loss.

In turn, `C[C@H]1[C@H](NC(=O)/C(=N\OC(C)(C)C(=O)O)c2csc(N)n2)C(=O)N1C(=O)NS(=O)(=O)N1C[C@@H](NC(=O)c2cc(=O)c(O)c[nH]2)CC1=O` yielded a clearance in [1] of 16 mL/min/kg. Also, the MIC90 was 2 µg/mL (≈ 2.87 µM) against Pseudomonas aeruginosa [2], greater than 64 µg/mL in the data set with Acinetobacter baumannii, 32 µg/mL (≈ 45.9 µM) with Klebsiella pneumoniae and 32 µg/mL (≈ 45.9 µM) with Escherichia coli. This compound displayed a fraction unbound at 16 h, 10 µM in data set [3] of 0.24. The MIC in the data set with Pseudomonas aeruginosa [4] is less than 0.06 µg/mL; in the data set with Pseudomonas aeruginosa [5] it was 1 µg/mL (≈ 1.43 µM). Also, the Vd in [6] came to 0.44 L/kg. In data set [7], this compound had a fraction unbound of 0.06. The half-life in [8] is greater than 150 h; in data set [10], 0.34 h. Besides, the Kinact in the data set on Pseudomonas aeruginosa [9] amounted to 1.5 ×10⁵ /M/s.
In data set [1], `C[C@H]1[C@H](NC(=O)/C(=N\OC(C)(C)C(=O)O)c2csc(N)n2)C(=O)N1C(=O)NS(=O)(=O)n1nc(-c2cc(=O)c(O)c[nH]2)n(C[C@@H](O)CO)c1=O` showed a clearance of 9 mL/min/kg. For the same compound, the MIC90 in the data set with Pseudomonas aeruginosa [2] is 0.25 µg/mL (≈ 0.343 µM); in the data set with Acinetobacter baumannii it was greater than 128 µg/mL; against Klebsiella pneumoniae, 8 µg/mL (≈ 11 µM); against Escherichia coli it was 16 µg/mL (≈ 22 µM). The fraction unbound at 16 h, 10 µM in data set [3] came to 0.04. Besides, the minimum inhibitory concentration (MIC) against Pseudomonas aeruginosa [4] was less than 0.06 µg/mL; against Pseudomonas aeruginosa [5] it was 0.25 µg/mL (≈ 0.343 µM). In [6], the Vd is 0.28 L/kg. The fraction unbound in [7] came out at 0.04. For the same compound, the half-life in [8] is 138 h; in data set [10], 0.39 h. In the data set with Pseudomonas aeruginosa [9], this compound displayed a Kinact of 7.2 ×10⁴ /M/s.
Compound `C[C@H]1[C@H](NC(=O)/C(=N\OC(C)(C)C(=O)O)c2csc(N)n2)C(=O)N1C(=O)NS(=O)(=O)N1CCN(C(=O)c2cc(=O)c(O)c[nH]2)N(C)C1=O` returned a clearance in data set [1] of 12 mL/min/kg. The MIC90 was 2 µg/mL (≈ 2.81 µM) in the data set on Pseudomonas aeruginosa [2], greater than 128 µg/mL against Acinetobacter baumannii, 64 µg/mL (≈ 89.8 µM) against Klebsiella pneumoniae and 64 µg/mL (≈ 89.8 µM) in the data set with Escherichia coli. The fraction unbound at 16 h, 10 µM in data set [3] came to 0.14. Also, the MIC against Pseudomonas aeruginosa [4] was less than 0.06 µg/mL; against Pseudomonas aeruginosa [5], 1 µg/mL (≈ 1.4 µM). Besides, in data set [6], the Vd is 0.42 L/kg. The same compound yielded a fraction unbound in data set [7] of 0.15. In addition, the figures for the half-life in [8] and in data set [10] were 38 h and 0.37 h, respectively. Moreover, the Kinact in the data set on Pseudomonas aeruginosa [9] came to 2.6 ×10⁴ /M/s.
In data set [1], `C[C@H]1[C@H](NC(=O)/C(=N\OC(C)(C)C(=O)O)c2csc(N)n2)C(=O)N1C(=O)NS(=O)(=O)N1C[C@@H](NC(=O)NCc2cc(=O)c(O)cn2O)CC1=O` displayed a clearance of 9 mL/min/kg. Besides, the MIC90 is 2 µg/mL (≈ 2.69 µM) in the data set with Pseudomonas aeruginosa [2], greater than 128 µg/mL in the data set on Acinetobacter baumannii, 32 µg/mL (≈ 43.1 µM) against Klebsiella pneumoniae and 16 µg/mL (≈ 21.5 µM) against Escherichia coli. In [3], the unbound share (fraction unbound) at 16 h, 10 µM is 0.26. The MIC is less than 0.06 µg/mL against Pseudomonas aeruginosa [4] and 0.5 µg/mL (≈ 0.673 µM) with Pseudomonas aeruginosa [5]. For the same compound, the Vd in data set [6] was determined as 0.29 L/kg. Moreover, in [7], the fraction unbound was determined as 0.29. Besides, the half-life in data set [8] is 87 h; in [10], 0.49 h. In the data set on Pseudomonas aeruginosa [9], this compound yielded a Kinact of 5.9 ×10⁴ /M/s.
Regarding `C[C@H]1[C@H](NC(=O)/C(=N\OC(C)(C)C(=O)O)c2csc(N)n2)C(=O)N1S(=O)(=O)O` [AZTREONAM], the MIC90 in the data set with Pseudomonas aeruginosa [2] was 1020 µg/mL (≈ 2350 µM); in the data set on Acinetobacter baumannii, greater than 512 µg/mL; against Klebsiella pneumoniae, greater than 512 µg/mL; against Escherichia coli, greater than 512 µg/mL. Besides, the MIC with Pseudomonas aeruginosa [4] amounted to 0.25 µg/mL (≈ 0.574 µM); with Pseudomonas aeruginosa [5] it was 4 µg/mL (≈ 9.19 µM).
Regarding `C[C@H]1[C@H](NC(=O)/C(=N\OC(C)(C)C(=O)O)c2csc(N)n2)C(=O)N1C(=O)NS(=O)(=O)Nc1cc(=O)c(O)c[nH]1`, in [3], the fraction unbound at 16 h, 10 µM amounted to 0.23. Further, the minimal inhibitory concentration (MIC) is 1 µg/mL (≈ 1.7 µM) against Pseudomonas aeruginosa [4] and 16 µg/mL (≈ 27.3 µM) with Pseudomonas aeruginosa [5]. Also, the half-life in data set [8] was 103 h. This compound yielded a Kinact with Pseudomonas aeruginosa [9] of 1.3 ×10⁴ /M/s.
On the same counts, the results for `CC(C)(O/N=C(\C(=O)NC1CN(C(=O)NS(=O)(=O)N2CCN(NC(=O)c3cc(=O)c(O)c[nH]3)C2=O)C1=O)c1csc(N)n1)C(=O)O` (stereo not drawn) [PIRAZMONAM] are 0.29, 0.06 µg/mL (≈ 0.0876 µM), 0.25 µg/mL (≈ 0.365 µM), 41 h and 1.4 ×10⁵ /M/s.
In turn, `C[C@H]1[C@H](NC(=O)/C(=N\OC(C)(C)C(=O)O)c2csc(N)n2)C(=O)N1C(=O)NS(=O)(=O)NCc1cc(=O)c(O)c[nH]1` yielded a fraction unbound at 16 h, 10 µM in [3] of 0.61. Besides, the MIC in the data set with Pseudomonas aeruginosa [4] is less than 0.06 µg/mL; in the data set on Pseudomonas aeruginosa [5] it was 8 µg/mL (≈ 13.3 µM). Besides, in data set [8], the half-life is greater than 150 h. This compound displayed a Kinact in the data set with Pseudomonas aeruginosa [9] of 2.5 ×10⁴ /M/s.
The compound `C[C@H]1[C@H](NC(=O)/C(=N\OC(C)(C)C(=O)O)c2csc(N)n2)C(=O)N1C(=O)NS(=O)(=O)N1C[C@@H](NC(=O)NCc2cc(=O)c(O)c[nH]2)CC1=O` had a fraction unbound at 16 h, 10 µM in data set [3] of 0.26. For the same compound, the results for the MIC against Pseudomonas aeruginosa [4] and in the data set with Pseudomonas aeruginosa [5] were 1 µg/mL (≈ 1.38 µM) and 16 µg/mL (≈ 22 µM), respectively. This compound had a half-life in data set [8] of 30 h. Further, the Kinact in the data set with Pseudomonas aeruginosa [9] worked out at 2.4 ×10⁴ /M/s.
With `C[C@H]1[C@H](NC(=O)/C(=N\OC(C)(C)C(=O)O)c2csc(N)n2)C(=O)N1C(=O)NS(=O)(=O)N1C[C@@H](NC(=O)[C@H](CCS(C)(=O)=O)NC(=O)c2cc(=O)c(O)c[nH]2)CC1=O`, the fraction unbound at 16 h, 10 µM in data set [3] worked out at 0.21. Also, the MIC in the data set with Pseudomonas aeruginosa [4] was 0.25 µg/mL (≈ 0.29 µM); against Pseudomonas aeruginosa [5], 4 µg/mL (≈ 4.65 µM). In data set [8], this compound had a half-life greater than 150 h. Also, the Kinact in the data set with Pseudomonas aeruginosa [9] was 1.8 ×10⁴ /M/s.
For `C[C@H]1[C@H](NC(=O)/C(=N\OC(C)(C)C(=O)O)c2csc(N)n2)C(=O)N1C(=O)NS(=O)(=O)N1C[C@@H](NC(=O)N(C)Cc2cc(=O)c(O)cn2O)CC1=O` the same measures were 0.26, 0.25 µg/mL (≈ 0.33 µM), 1 µg/mL (≈ 1.32 µM), greater than 150 h and 1.9 ×10⁴ /M/s.
Turning to `C[C@H]1[C@H](NC(=O)/C(=N\OC(C)(C)C(=O)O)c2csc(N)n2)C(=O)N1C(=O)NS(=O)(=O)N1CCN(C(=O)c2cc(=O)c(O)c[nH]2)CC1`, in [3], the unbound share (fraction unbound) at 16 h, 10 µM came to 0.26. In addition, the MIC is less than 0.06 µg/mL in the data set with Pseudomonas aeruginosa [4] and 8 µg/mL (≈ 11.7 µM) in the data set with Pseudomonas aeruginosa [5]. In data set [8], this compound yielded a half-life greater than 150 h. In the data set on Pseudomonas aeruginosa [9], the Kinact amounted to 2.4 ×10⁴ /M/s.
On the same counts, the results for `C[C@H]1[C@H](NC(=O)/C(=N\OCC(=O)O)c2csc(N)n2)C(=O)N1C(=O)NS(=O)(=O)N1C[C@@H](NC(=O)NCc2cc(=O)c(O)cn2O)CC1=O` are 0.26, 0.13 µg/mL (≈ 0.182 µM), 4 µg/mL (≈ 5.6 µM), 87 h and 3.4 ×10³ /M/s.
`C[C@H]1[C@H](NC(=O)/C(=N\OC(C)(C)C(=O)O)c2csc(N)n2)C(=O)N1C(=O)NS(=O)(=O)N1C[C@@H](NC(=O)[C@H](CN)NC(=O)c2cc(=O)c(O)c[nH]2)CC1=O` registered a fraction unbound at 16 h, 10 µM in data set [3] of 0.18. Also, the MIC with Pseudomonas aeruginosa [4] is 0.5 µg/mL (≈ 0.638 µM); in the data set on Pseudomonas aeruginosa [5], 4 µg/mL (≈ 5.1 µM). This compound had a half-life in [8] of 51 h. Also, the Kinact with Pseudomonas aeruginosa [9] came out at 9.4 ×10³ /M/s.
Consider `C[C@H]1[C@H](NC(=O)/C(=N\OC(C)(C)C(=O)O)c2csc(N)n2)C(=O)N1C(=O)NS(=O)(=O)N1C[C@@H](NC(=O)[C@H](CC(=O)O)NC(=O)c2cc(=O)c(O)cn2O)CC1=O`, for which the fraction unbound at 16 h, 10 µM in data set [3] came to 0.43. For the same compound, the minimal inhibitory concentration (MIC) in the data set on Pseudomonas aeruginosa [4] was less than 0.06 µg/mL; in the data set with Pseudomonas aeruginosa [5], 0.25 µg/mL (≈ 0.302 µM). In [8], this compound came in with a half-life greater than 150 h. The same compound displayed a Kinact with Pseudomonas aeruginosa [9] of 2 ×10⁵ /M/s.
In [3], `C[C@H]1[C@H](NC(=O)/C(=N\OC(C)(C)C(=O)O)c2csc(N)n2)C(=O)N1C(=O)NS(=O)(=O)N1C[C@@H](NC(=O)CNC(=O)c2cc(=O)c(O)cn2O)CC1=O` registered a fraction unbound at 16 h, 10 µM of 0.45. Also, the values for the MIC against Pseudomonas aeruginosa [4] and against Pseudomonas aeruginosa [5] were less than 0.06 µg/mL and 0.5 µg/mL (≈ 0.649 µM), respectively. Besides, the half-life in data set [8] is greater than 150 h. Also, the Kinact in the data set with Pseudomonas aeruginosa [9] is 1 ×10⁵ /M/s.
